pIC50: −log10 of the molar value. Where two headings read alike, the source gives them in different places. Peptide text beside a SMILES is read from it.
Test system: SARS-CoV-2
Assay: microbe, parasite or virus in culture
Details: Severe acute respiratory syndrome coronavirus 2, Caco-2, 48 h; for inhibition at 10 µM: read-out: % Inh. (% Inhibition of SARS-CoV-2); for IC50: read-out: pIC50 (converted)

## Oc1cccc(-c2c3nc(c(-c4cccc(O)c4)c4ccc([nH]4)c(-c4cccc(O)c4)c4nc(c(-c5cccc(O)c5)c5ccc2[nH]5)CC4)C=C3)c1 [Temoporfin]
  inhibition at 10 µM: 85.9%

## CC(=O)Nc1cccc(-n2c(=O)n(C3CC3)c(=O)c3c(Nc4ccc(I)cc4F)n(C)c(=O)c(C)c32)c1 [Trametinib]
  inhibition at 10 µM: 76.6%

## O=C(Nc1ccc(Cl)cc1)Nc1ccc(Cl)c(Cl)c1 [Triclocarban]
  inhibition at 10 µM: 97.2%

## CC(C)[C@]12O[C@H]1[C@@H]1O[C@]13[C@]1(O[C@H]1C[C@H]1C4=C(CC[C@@]13C)C(=O)OC4)[C@@H]2O [Triptolide]
  inhibition at 10 µM: 90.7%

## N#CC(=C(/N)Sc1ccccc1N)/C(C#N)=C(\N)Sc1ccccc1N [U-0126]
  inhibition at 10 µM: 79.1%

## CCN(CC)CCO[C@H]1CC[C@@]2(C)C(=CC[C@@H]3[C@@H]2CC[C@]2(C)C(=O)CC[C@@H]32)C1 [U-18666A]
  inhibition at 10 µM: 77.4%

## COc1cc2c(Nc3ccc(Br)cc3F)ncnc2cc1OCC1CCN(C)CC1 [Vandetanib (ZD6474), Vandetanib]
  inhibition at 10 µM: 51.2%

## C=CC(N)CCC(=O)O (stereo not shown) [Vigabatrin]
  inhibition at 10 µM: 52.5%

## CNC(=O)c1cccc(-c2ccc3c(N4CCOC[C@@H]4C)nc(N4CCOC[C@@H]4C)nc3n2)c1 [Vistusertib (AZD2014), Vistusertib]
  inhibition at 10 µM: 112%

## CCn1c(=O)c(-c2cc[nH]n2)cc2c(C)nc(N)nc21 [Voxtalisib]
  inhibition at 10 µM: 84.3%

## FC(F)c1nc2ccccc2n1-c1nc(N2CCOCC2)nc(N2CCOCC2)n1 [ZSTK474]
  inhibition at 10 µM: 90.9%

## O=C(O)CCCCC(=O)O [adipic-acid]
  inhibition at 10 µM: 55.9%

## CCCCN(CC)c1nc(C)nc2c1c(C)c(C)n2-c1c(C)cc(C)cc1C [antalarmin]
  inhibition at 10 µM: 59%

## Nc1ccccc1C(=O)O [anthranilic-acid]
  inhibition at 10 µM: 50%

## CCCC1O[C@@H]2C[C@H]3[C@@H]4CCC5=CC(=O)C=C[C@]5(C)[C@H]4[C@@H](O)C[C@]3(C)[C@]2(C(=O)CO)O1 (stereo partly shown) [budesonide]
  inhibition at 10 µM: 74.4%

## COc1cc2nccc(Oc3ccc(NC(=O)C4(C(=O)Nc5ccc(F)cc5)CC4)cc3)c2cc1OC [cabozantinib]
  inhibition at 10 µM: 57.5%

## CC[C@@]1(O)C(=O)OCc2c1cc1n(c2=O)Cc2cc3ccccc3nc2-1 [camptothecin]
  inhibition at 10 µM: 81.8%

## COc1ccc(C(Cl)=C(c2ccc(OC)cc2)c2ccc(OC)cc2)cc1 [chlorotrianisene]
  inhibition at 10 µM: 55.3%

## O=CC=Cc1ccccc1 [cinnamaldehyde]
  inhibition at 10 µM: 62.3%

## COC(=O)C1=C(C)NC(C)=C(C(=O)OCCCN2CCC(c3ccccc3)(c3ccccc3)CC2)[C@@H]1c1cccc([N+](=O)[O-])c1 [dexniguldipine]
  pIC50: 4.45
  inhibition at 10 µM: 97.6%
  IC50: 35.5 µM

## C[C@]12CC[C@H](O)C[C@H]1CC[C@@H]1[C@@H]2CC[C@]2(C)[C@@H](C3=CC(=O)OC3)CC[C@]12O [digitoxigenin]
  inhibition at 10 µM: 60%

## c1ccc2c(c1)[I+]c1ccccc1-2 [diphenyleneiodonium]
  inhibition at 10 µM: 55.5%

## CNCC(O)c1ccc(OC(=O)C(C)(C)C)c(OC(=O)C(C)(C)C)c1 (stereo not shown) [dipivefrine]
  inhibition at 10 µM: 54%

## O=C(Cn1ccnc1[N+](=O)[O-])NCCO [etanidazole]
  inhibition at 10 µM: 57.3%

## Cc1cc2c(C(C)C)c(O)c(O)c(C=O)c2c(O)c1-c1c(C)cc2c(C(C)C)c(O)c(O)c(C=O)c2c1O [gossypol]
  inhibition at 10 µM: 66.3%

## CC(O)COC[C@H]1O[C@@H]2O[C@H]3[C@H](O)[C@@H](O)[C@@H](O[C@H]4[C@H](O)[C@@H](O)[C@@H](O[C@H]5[C@H](O)[C@@H](O)[C@@H](O[C@H]6[C@H](O)[C@@H](O)[C@@H](O[C@H]7[C@H](O)[C@@H](O)[C@@H](O[C@H]8[C@H](O)[C@@H](O)[C@@H](O[C@H]1[C@H](O)[C@H]2O)O[C@@H]8COCC(C)O)O[C@@H]7COCC(C)O)O[C@@H]6COCC(C)O)O[C@@H]5COCC(C)O)O[C@@H]4COCC(C)O)O[C@@H]3COCC(C)O (stereo partly drawn) [hydroxypropyl-beta-cyclodextrin]
  inhibition at 10 µM: 56.5%

## O=C1NC(c2cccc([N+](=O)[O-])c2)=CCN1c1ccccc1O [icilin]
  inhibition at 10 µM: 55.1%

## NC(N)=NCc1cccc(I)c1 [iobenguane]
  inhibition at 10 µM: 86.9%

## CC(=O)OCC(=O)[C@@]1(O)CC[C@H]2[C@@H]3CCC4=CC(=O)C=C[C@]4(C)[C@@]3(F)[C@@H](O)C[C@@]21C [isoflupredone-acetate]
  inhibition at 10 µM: 80.6%

## Cc1ccnc2c1CCCC2C(N)=S (stereo not shown) [isotiquimide]
  inhibition at 10 µM: 50%

## NCCNC(=O)c1ccc(Cl)cn1 [lazabemide]
  inhibition at 10 µM: 67.9%

## CC(C)(C)NC[C@H](O)COc1cccc2c1CCCC2=O [levobunolol]
  inhibition at 10 µM: 64.5%

## Cc1[nH]cnc1-c1ccc(Cl)cc1 [lofemizole]
  inhibition at 10 µM: 56.3%

## O=C1NC(=S)NC(=O)C1C(=O)Nc1ccccc1 [merbarone]
  inhibition at 10 µM: 50.4%

## CC(=O)Oc1c(C)cc(OCC(O)CNC(C)C)c(C)c1C (stereo not shown) [metipranolol]
  inhibition at 10 µM: 54.6%

## COCC(=O)O[C@]1(CCN(C)CCCc2nc3ccccc3[nH]2)CCc2cc(F)ccc2[C@@H]1C(C)C [mibefradil]
  inhibition at 10 µM: 52.4%

## CCOC(=O)Nc1cc2c(c(N)n1)N=C(c1ccccc1)[C@H](C)N2 [mivobulin]
  inhibition at 10 µM: 65%

## FC(F)(F)c1ccc(/C=C/c2nc(COc3ccc(CCCCn4ccnn4)cc3)co2)cc1 [mubritinib]
  inhibition at 10 µM: 82.2%

## O=C(OCC(COC(=O)c1cccnc1)(COC(=O)c1cccnc1)COC(=O)c1cccnc1)c1cccnc1 [niceritrol]
  inhibition at 10 µM: 50.1%

## COC(=O)Nc1nc2ccc(C(=O)c3cccs3)cc2[nH]1 [nocodazole]
  inhibition at 10 µM: 66.1%

## NCCC(Oc1ccc(C(F)(F)F)cc1)c1ccccc1 (stereo not shown) [norfluoxetine]
  inhibition at 10 µM: 95%

## N[C@H](C(=O)O)c1ccc(O)cc1 [oxfenicine]
  inhibition at 10 µM: 50.7%

## O=c1[nH]c2ccccc2n1C1CCN(CCOc2ccccc2)CC1 [oxiperomide]
  inhibition at 10 µM: 77.9%

## Cc1nc2ccccn2c(=O)c1CCN1CCC(C(=O)c2ccc(F)cc2)CC1 [pirenperone]
  inhibition at 10 µM: 64.1%

## CC(C)C[C@H](NC(=O)[C@@H]1CCCN1)C(=O)NCC(N)=O [prolylleucylglycinamide] (H-Pro-Leu-Gly-NH2)
  inhibition at 10 µM: 70.6%

## N#CN1CCCC1 [pyrrolidine-1-carbonitrile]
  inhibition at 10 µM: 65.9%

## O=C1NCCN1CCN1CCC(c2cn(-c3ccc(F)cc3)c3ccc(Cl)cc23)CC1 [sertindole]
  inhibition at 10 µM: 90.3%

## C/C=C/C=C/C(=O)O [sorbic-acid]
  inhibition at 10 µM: 65.5%

## C[S+]([O-])CCCCN=C=S (stereo not shown) [sulforaphane]
  inhibition at 10 µM: 94.2%

## COc1cc(C)c2c(Oc3cccc(C(F)(F)F)c3)c(OC)cc(NC(C)CCCN)c2n1 (stereo not shown) [tafenoquine]
  inhibition at 10 µM: 90%

## C[C@@H]1CN(Cc2ccc(F)cc2)[C@@H](C)CN1C(=O)c1cc2c(C(=O)C(=O)N(C)C)cn(C)c2cc1Cl [talmapimod]
  pIC50: 4.64
  inhibition at 10 µM: 92.3%
  IC50: 22.9 µM

## COc1cccc([C@@H](C)NCCCc2ccccc2Cl)c1 [tecalcet]
  inhibition at 10 µM: 78.1%

## NC(=O)N1C(=O)/C(=C(\O)c2cccs2)c2cc(Cl)ccc21 [tenidap]
  inhibition at 10 µM: 75.2%

## COc1c(O[C@@H]2O[C@H](CO)[C@@H](O)[C@H](O)[C@H]2O)cc2c(c1OC)-c1ccc(SC)c(=O)cc1[C@@H](NC(C)=O)CC2 [thiocolchicoside]
  inhibition at 10 µM: 54.2%
